pIC50: −log10 of the molar value. One block for each compound: values may come before it.
Columns and labels:
SCC4 cells [1] = assay: EdU cell growth assay; conditions: 1,25D-resistant SCC4 cells, Fig. 2e, f
Description: EdU cell growth assay. Click-iT EdU Alexa Fluor high-throughput imaging (HCS) assay for cell proliferation. HCS assays were performed on AT84 mouse squamous carcinoma cell line (ATCC) following the manufacturer's instruction (Molecular Probes, Invitrogen). […] All samples were in triplicate.

VDR = target: T1, VDR (Homo sapiens, UniProt P11473); assay: VDR agonism by induction of CYP24 gene expression (RT/PCR); type: cell-based; conditions: SCC25 cells; for VDR agonism by induction of CYP24 gene expression: screen at 10 µM, Fig. 1a
T1 construct: endogenous in cells; host or cells: SCC25 human head and neck squamous carcinoma cells
T1 sequence (P11473 1-427): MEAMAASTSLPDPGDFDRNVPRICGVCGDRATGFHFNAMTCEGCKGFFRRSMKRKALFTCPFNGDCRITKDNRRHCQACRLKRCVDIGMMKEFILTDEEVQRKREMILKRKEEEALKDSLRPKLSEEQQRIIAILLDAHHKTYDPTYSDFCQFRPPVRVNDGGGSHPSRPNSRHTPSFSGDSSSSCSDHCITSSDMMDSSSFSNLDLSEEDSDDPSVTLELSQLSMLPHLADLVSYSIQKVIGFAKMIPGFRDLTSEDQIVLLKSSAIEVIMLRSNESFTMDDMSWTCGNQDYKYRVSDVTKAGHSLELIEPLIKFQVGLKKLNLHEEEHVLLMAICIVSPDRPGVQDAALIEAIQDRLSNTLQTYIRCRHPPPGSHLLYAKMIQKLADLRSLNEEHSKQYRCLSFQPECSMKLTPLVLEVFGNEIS
Description: Cell culture. Human head and neck squamous carcinoma cell lines SCC4 and SCC45 and mouse HNSCC line AT84 were purchased from American Type Culture Collection (Manassas, VA) and cultured under recommended conditions. Cells were split at 60-70% confluence, as follows: cells were washed with filtered PBS, split with a 5-10 min incubation with 1 ml Trypsin-EDTA (Invitrogen, Carlsbad, CA) in PBS, collected with medium. Following centrifugation, the supernatant was removed. Cell pellets were resuspended with DMEM-F12, and distributed on fresh media-containing dishes. For treatments, AT84 cells were split and 24h later medium was changed to DMEM + 10% charcoal-stripped FBS.
RNA isolation and RT/PCR analysis. […]. Proc. Nat. Acad. Sci. U.S.A. 105, 8250-55. and Lamblin, M.et al Bioorganic & Medicinal Chemistry (2010) 18:4119-4137. After treatment, cells were washed with PBS, homogenized with 1ml TRIzol Reagent (Invitrogen, Carlsbad, CA), kept at room temperature for 2-5 min, collected and kept at -80 °C for at least 1h. After, thawing 0.2 ml chloroform was added. After vigorous mixing and storing for 10min, mixtures were centrifuged (10,000rpm, 15 min, 4 °C) and the upper transparent layer was transferred to a new tube. 0.5 ml isopropanol was added and the new solution was mixed. After centrifuging at 4 °C, the supernatant was discarded and 1ml of 75% ethanol was added. After centrifuging and discarding the supernatant, the pellet was air-dried for 5-10 min, and then dissolved in ddH2O. RNA concentrations were measured using a spectrophotometer, and 1-3µg of RNA were loaded for reverse transcriptase reactions (total volume: 20 µl). 80µl of ddH2O was added to the RT-product, and 1.5µl of that was used as template for the PCR reaction. Reverse transcriptase (Super Script II) was purchased from Invitrogen (Carlsbad, CA). DNA polymerase and dNTP's were ordered from Fermentas (Glen Burnie, MD).
Test compounds (10 µM) were first screened for VDR agonism by analysis of induction of CYP24 gene expression in 1,25D-sensitive human SCC25 cells. […]. Consistent with binding to the VDR, induction of CYP24 by compound JF-B01, compound JF-B53 or compound 16 (JF-B54) was blocked (Fig. 1c). […]

SCC4 cells [2] = assay: MTS cell proliferation assay; type: cell-based, human; conditions: vitamin D resistant SCC4 cells, Figures 7c, 8 and 9
From the text: Dose-dependent effects of compounds on cell cycle progression was monitored using a CellTiter 96 Aqueous Non-Radioactive Cell Proliferation Assay Kit (Promega). The assay composed of solutions of a novel tetrazolium compound (MTS) and an electron coupling reagent (phenazine methosulfate; PMS). MTS is reduced by metabolically active cells into a soluble formazan product that absorbs at 490nm. The quantity of formazan product absorbing at 490nm is directly proportional to the number of living cells.

HDAC3 = HDAC3 (Homo sapiens, UniProt O15379); assay: Fluorogenic HDAC inhibition assay, purified enzyme
Chain of HDAC3 (O15379 whole entry, species assumed): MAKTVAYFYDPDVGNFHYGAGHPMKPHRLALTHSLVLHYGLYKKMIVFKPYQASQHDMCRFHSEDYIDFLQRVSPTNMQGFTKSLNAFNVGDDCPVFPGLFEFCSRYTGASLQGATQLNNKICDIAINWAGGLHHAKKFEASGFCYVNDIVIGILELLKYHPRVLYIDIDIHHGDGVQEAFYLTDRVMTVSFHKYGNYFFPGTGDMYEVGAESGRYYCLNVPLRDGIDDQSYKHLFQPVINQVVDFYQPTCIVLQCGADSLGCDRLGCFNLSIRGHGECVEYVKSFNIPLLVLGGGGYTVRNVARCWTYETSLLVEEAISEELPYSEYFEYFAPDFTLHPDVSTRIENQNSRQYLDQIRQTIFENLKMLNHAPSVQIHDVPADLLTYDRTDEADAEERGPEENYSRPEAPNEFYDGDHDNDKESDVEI
Chain of HDAC3 (Q9Y618 395-489 partner limits assumed, species assumed): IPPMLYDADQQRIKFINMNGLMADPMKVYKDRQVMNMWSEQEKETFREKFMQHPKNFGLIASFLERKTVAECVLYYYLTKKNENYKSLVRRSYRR
Description: (§1) Fluorogenic HDAC inhibition assay. Boc-Lys(Ac)-7-amino-4-methylcoumarin (Boc-Lys(Ac)-AMC) was used as substrate for the HDAC assays. […] Trypsin was used to stop the reaction, releasing free AMC. The trypsin solution was prepared as follow: trypsin was dissolved in HDAC buffer to give a concentration of 10 mg/mL. Release of AMC was monitored by measuring the fluorescence at 460 nm (lex = 390 nm) with a microplate reader (SpectraMax Gemini) at 37 °C. The AMC signals were recorded against a blank with buffer, substrate and trypsin but without the enzyme. All experiments were carried out at least in triplicate.
(§2) For standard HDAC assays, 50 µL of HDAC buffer was mixed with 10 µL of diluted enzyme solution in HDAC buffer at room temperature. The HDAC reaction was started by adding 40 µL of substrate solution in HDAC buffer followed by 30 min of incubation with stirring at 37 °C. The reaction was stopped by adding 100 µL of trypsin solution. After a 10 min incubation with stirring at 37 °C, the release of AMC was monitored by measuring the fluorescence. For HDAC inhibition assays, inhibitor diluted in 50 µL of HDAC buffer was mixed with 10 µL of diluted enzyme solution in HDAC buffer at room temperature. The HDAC reaction was started by adding 40 µL of substrate solution in HDAC buffer followed by 30 min of incubation with stirring at 37 °C. The reaction was stopped by adding 100 µL of trypsin solution. After a 10 min incubation with stirring at 37 °C, the release of AMC was monitored by measuring the fluorescence.

HDAC6 = target: T2, HDAC6 (Homo sapiens, UniProt Q9UBN7); assay: Fluorogenic HDAC inhibition assay, purified enzyme
T2 sequence (Q9UBN7 1-1215): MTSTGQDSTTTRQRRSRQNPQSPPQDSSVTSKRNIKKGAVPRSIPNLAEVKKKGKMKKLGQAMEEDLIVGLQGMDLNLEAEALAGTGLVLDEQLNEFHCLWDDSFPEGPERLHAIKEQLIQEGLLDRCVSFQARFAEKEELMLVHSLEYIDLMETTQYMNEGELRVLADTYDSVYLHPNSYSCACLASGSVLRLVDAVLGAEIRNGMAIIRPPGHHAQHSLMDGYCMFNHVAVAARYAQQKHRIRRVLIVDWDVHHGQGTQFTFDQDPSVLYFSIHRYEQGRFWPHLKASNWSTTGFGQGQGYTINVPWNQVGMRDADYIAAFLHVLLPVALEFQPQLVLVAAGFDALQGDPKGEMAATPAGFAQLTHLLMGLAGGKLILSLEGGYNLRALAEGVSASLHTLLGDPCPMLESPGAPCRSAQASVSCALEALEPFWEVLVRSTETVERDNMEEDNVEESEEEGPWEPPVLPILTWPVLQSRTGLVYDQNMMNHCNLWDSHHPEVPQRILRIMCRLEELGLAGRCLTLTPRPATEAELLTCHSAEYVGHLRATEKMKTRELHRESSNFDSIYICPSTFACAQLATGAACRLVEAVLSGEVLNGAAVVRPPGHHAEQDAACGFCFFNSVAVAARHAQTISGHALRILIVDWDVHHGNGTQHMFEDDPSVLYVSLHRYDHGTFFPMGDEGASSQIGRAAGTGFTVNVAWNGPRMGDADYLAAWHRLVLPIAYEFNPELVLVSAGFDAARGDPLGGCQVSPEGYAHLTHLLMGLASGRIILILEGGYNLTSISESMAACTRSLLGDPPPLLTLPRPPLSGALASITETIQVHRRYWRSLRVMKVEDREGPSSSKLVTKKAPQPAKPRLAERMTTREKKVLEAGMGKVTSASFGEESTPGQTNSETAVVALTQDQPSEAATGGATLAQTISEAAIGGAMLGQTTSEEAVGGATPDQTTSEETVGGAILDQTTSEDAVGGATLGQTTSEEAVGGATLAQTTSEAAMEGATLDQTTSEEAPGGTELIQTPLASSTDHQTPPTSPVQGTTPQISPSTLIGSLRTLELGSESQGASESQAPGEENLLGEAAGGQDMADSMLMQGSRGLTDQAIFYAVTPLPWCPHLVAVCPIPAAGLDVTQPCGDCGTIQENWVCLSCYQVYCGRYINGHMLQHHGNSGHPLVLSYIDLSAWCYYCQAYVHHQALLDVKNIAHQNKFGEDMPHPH
Description: as §1, §2

- VDR agonist activity and potency, induction of CYP24 gene expression (VDR; Fig. 1b, 1d): some agonist activity
SMILES: CCC(CC)(c1ccc(OCC(=O)O)c(C)c1)c1ccc(OCC(=O)C(C)(C)C)c(C)c1 [JF-C11]
- inhibition of proliferation, EdU incorporation (SCC4 cells [1]): failed to block SCC4 proliferation

SMILES: CCC(CC)(c1ccc(OCC(O)C(C)(C)C)c(C)c1)c1cc(C)c(CCC(=O)NO)s1 (stereo not drawn) [DK-178, N-hydroxy-3-(5-(3-(4-(2-hydroxy-3,3-dimethylbutoxy)-3-methylphenyl)pentan-3-yl)-3-methylthiophen-2-yl)propanamide]
- antiproliferative potency (SCC4 cells [2]): low micromolar potency
- pIC50 (HDAC3): 4.33
- pIC50 (HDAC6): 4.60

SMILES: CCC(CC)(c1ccc(OCC(O)C(C)(C)C)c(C)c1)c1ccc(C(=O)NCCCCCC(=O)NO)c(C)c1 (stereo not drawn) [DK-361, 4-(3-(4-(2-hydroxy-3,3-dimethylbutoxy)-3-methylphenyl)pentan-3-yl)-N-(6-(hydroxyamino)-6-oxohexyl)-2-methylbenzamide]
- pIC50 (HDAC6): 5.47

SMILES: CCC(CC)(c1ccc(OCCCCC(=O)NO)cc1)c1ccc(OCCC(C)(C)C)c(C)c1 [DK-405, 5-(4-(3-(4-(3,3-dimethylbutoxy)-3-methylphenyl)pentan-3-yl)phenoxy)-N-hydroxypentanamide]
- pIC50 (HDAC6): 5.71

- pIC50 (HDAC3): 4.52
SMILES: CCC(CC)(c1ccc(OCC(=O)NO)c(C)c1)c1cc(C)c(CCC(O)C(C)(C)C)s1 (stereo not drawn) [DK-201, N-hydroxy-2-(4-(3-(5-(3-hydroxy-4,4-dimethylpentyl)-4-methylthiophen-2-yl)pentan-3-yl)-2-methylphenoxy)acetamide]

SMILES: CCC(CC)(c1ccc(OCC(O)C(C)(C)C)c(C)c1)c1cn(C)c2cc(CCC(=O)NO)ccc12 (stereo not drawn) [DK-234, N-hydroxy-3-(3-(3-(4-(2-hydroxy-3.3-dimethylbutoxy)-3-methylphenyl)pentan-3-yl)-1-methyl-1H-indol-6-yl)propanamide]
- antiproliferative potency (SCC4 cells [2]): low micromolar potency

- pIC50 (HDAC3): 4.35
- pIC50 (HDAC6): 4.44
SMILES: CCC(CC)(c1ccc(CCC(=O)NO)c(C)c1)c1ccc(OC[C@H](O)C(C)(C)C)c(C)c1 [JFD-50]
- antiproliferative potency (SCC4 cells [2]): low micromolar potency

- VDR agonism by induction of CYP24 gene expression (VDR): completely inactive
SMILES: CCC(CC)(c1ccc(OCCO)c(C)c1)c1ccc(OCC(=O)NO)c(C)c1 [JF-B52, N-Hydroxy-2-(4-(3-(4-(2-hydroxvethoxy)-3-methylphenyl)pentan-3-yl)-2-methylphenoxy)acetamide]

SMILES: CCC(CC)(c1ccc(OCC(=O)NO)c(C)c1)c1ccc(OCC(=O)C(C)(C)C)c(C)c1 [JF-B59, 2-(4-(3-(4-(3,3-dimethyl-2-oxobutoxy)-3-methylphenyl)pentan-3-yl)-2-methylphenoxy)-N-hydroxyacetamide]
- VDR agonist potency, fold lower compared to JF-B01 (VDR; Fig. 1b): > 10 fold

- VDR agonism by induction of CYP24 gene expression (VDR): completely inactive
SMILES: CCC(CC)(c1ccc(OCC(=O)NO)c(C)c1)c1ccc(OCC(O)CO)c(C)c1 (stereo not drawn) [JF-B40]

SMILES: CCC(CC)(c1ccc(OCCCCCC(=O)NO)cc1)c1ccc(OCC(O)C(C)(C)C)c(C)c1 (stereo not drawn) [DK-367, N-hydroxy-6-(4-(3-(4-(2-hydroxy-3,3-dimethylbutoxy)-3-methylphenyl)pentan-3-yl)phenoxy)hexanamide]
- antiproliferative potency (SCC4 cells [2]): low micromolar potency
- pIC50 (HDAC6): 5.80

SMILES: CCC(CC)(c1ccc(C(=O)NCCCCCC(=O)NO)cc1)c1ccc(OCC(O)C(C)(C)C)c(C)c1 (stereo not drawn) [DK-406, 4-(3-(4-(2-hydroxy-3,3-dimethylbutoxy)-3-methylphenyl)pentan-3-yl)-N-(6-(hydroxyamino)-6-oxohexyl)benzamide]
- pIC50 (HDAC6): 6.25

SMILES: CCC(CC)(c1ccc(OCCCCCC(=O)NO)c(C)c1)c1ccc(OCC(O)C(C)(C)C)c(C)c1 (stereo not drawn) [DK-319, N-hydroxy-6-(4-(3-(4-(2-hydroxy-3,3-dimethylbutoxy)-3-methylphenyl)pentan-3-yl)-2-methylphenoxy)hexanamide]
- pIC50 (HDAC6): 5.58

SMILES: CCC(CC)(c1ccc(OCCCCC(=O)NO)c(C)c1)c1ccc(OCC(O)C(C)(C)C)c(C)c1 (stereo not drawn) [DK-320, N-hydroxy-5-(4-(3-(4-(2-hydroxy-3,3-dimethylbutoxy)-3-methylphenyl)pentan-3-yl)-2-methylphenoxy)pentanamide]
- pIC50 (HDAC6): 5.30

SMILES: CCC(CC)(c1ccc(OCC(O)CCC(=O)NO)c(C)c1)c1ccc(OCC(O)C(C)(C)C)c(C)c1 (stereo not drawn) [DK-305, N,4-dihydroxy-5-(4-(3-(4-(2-hydroxy-3,3-dimethylbutoxy)-3-methylphenyl)pentan-3-yl)-2-methylphenoxy)pentanamide]
- pIC50 (HDAC6): 4.53

SMILES: CCC(CC)(c1ccc(OCCCCCCC(=O)NO)c(C)c1)c1ccc(OCC(O)C(C)(C)C)c(C)c1 (stereo not drawn) [DK-347, N-hydroxy-7-(4-(3-(4-(2-hydroxy-3,3-dimethylbutoxy)-3-methylphenyl)pentan-3-yl)-2-methylphenoxy)heptanamide]
- pIC50 (HDAC6): 5.40

SMILES: CCC(CC)(c1ccc(OCCCCC(=O)NO)cc1)c1ccc(OCC(O)C(C)(C)C)c(C)c1 (stereo not drawn) [DK-381, N-hydroxy-5-(4-(3-(4-(2-hydroxy-3,3-dimethylbutoxy)-3-methylphenyl)pentan-3-yl)phenoxy)pentanamide]
- pIC50 (HDAC6): 5.50

- pIC50 (HDAC3): 5.01
- pIC50 (HDAC6): 4.33
SMILES: CCC(CC)(c1ccc(OCCCC(=O)NO)c(C)c1)c1ccc(OC[C@H](O)C(C)(C)C)c(C)c1 [JFD-15]
- antiproliferative potency (SCC4 cells [2]): low micromolar potency

SMILES: CCC(CC)(c1ccc(OCC(O)C(C)(C)C)c(C)c1)c1ccc(C(=O)NCCCCCCC(=O)NO)c(C)c1 (stereo not drawn) [DK-362, 4-(3-(4-(2-hydroxy-3,3-dimethylbutoxy)-3-methylphenyl)pentan-3-yl)-N-(7-(hydroxyamino)-7-oxoheptyl)-2-methylbenzamide]
- pIC50 (HDAC6): 5.97

From patent EP2794556B1, “BIS-(ARYL/HETEROARYL)-METHYLENE COMPOUNDS, PHARMACEUTICAL COMPOSITIONS CONTAINING SAME AND THEIR USE FOR TREATING CANCER” (Gleason, James L., priority 2011, dated 2013)
